Test results as given in US9340577B2, “HLA binding motifs and peptides and their uses” (priority 1992, dated 2016).

How the values were obtained:
[1] = target: DRB1*0301 (Homo sapiens, UniProt P01903+P01911, A100K/A102G/A103R/A169T/F55Y/I96L/K41T/L162R/M171V/P40S/Q125H/Q178H/Q39Y/R42S/S66N/T106N/T262R/W38E/Y61H); test: biochemical; assay type: binding
[2] = target: DRB1*1201 (Homo sapiens, UniProt P01903+P01911, A100R/A169T/D57E/D86V/F55L/H45Y/K41T/L162R/M171V/P40S/Q125H/Q178H/Q39Y/Q99D/R42G/S66L/T262R/V114A/V67L/W38E/Y59H/Y61H/Y89S); test: biochemical; assay type: binding

Sequence of DRB1*0301 (P01903 26-254 limits assumed, other chains not shown): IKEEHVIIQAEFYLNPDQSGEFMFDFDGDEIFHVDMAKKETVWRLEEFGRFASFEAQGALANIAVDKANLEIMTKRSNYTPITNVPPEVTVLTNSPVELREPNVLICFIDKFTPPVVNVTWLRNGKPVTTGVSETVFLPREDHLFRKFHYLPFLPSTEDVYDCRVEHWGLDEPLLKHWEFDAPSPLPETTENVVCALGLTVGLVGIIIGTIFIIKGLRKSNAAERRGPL

SMILES | IC50 [1] | IC50 [2]
CSCC[C@H](NC(=O)[C@@H]1CCCN1C(=O)[C@H](CC(=O)O)NC(=O)[C@@H](N)Cc1ccc(O)cc1)C(=O)N[C@@H](Cc1ccccc1)C(=O)N[C@@H](CCCCN)C(=O)N[C@@H](Cc1ccc(O)cc1)C(=O)N[C@@H](Cc1c[nH]cn1)C(=O)N[C@@H](CC(C)C)C(=O)N[C@H](C(=O)N[C@H](C(=O)N[C@@H](C)C(=O)N[C@@H](CCC(N)=O)C(=O)N[C@H](C(=O)N[C@@H](CCCNC(=N)N)C(=O)O)C(C)C)C(C)C)[C@@H](C)O [Peptide 68.0117] | > 20 µM | 0.24 µM
CC[C@H](C)[C@H](NC(=O)[C@H](CO)NC(=O)[C@@H](NC(=O)CN)C(C)C)C(=O)N[C@@H](Cc1c[nH]c2ccccc12)C(=O)N[C@@H](CC(N)=O)C(=O)N1CCC[C@H]1C(=O)N[C@H](C(=O)N[C@@H](CC(C)C)C(=O)N[C@@H](CC(C)C)C(=O)N[C@@H](Cc1c[nH]c2ccccc12)C(=O)N[C@@H](CCC(N)=O)C(=O)N1CCC[C@H]1C(=O)N[C@H](C(=O)N1CCC[C@H]1C(=O)O)[C@@H](C)CC)[C@@H](C)CC [Peptide 68.0034] | > 20 µM | 3.9 µM
CC(C)C[C@H](NC(=O)[C@@H]1CCCN1C(=O)[C@H](Cc1c[nH]cn1)NC(=O)[C@@H]1CCCN1C(=O)[C@H](Cc1ccccc1)NC(=O)[C@H](CO)NC(=O)[C@H](Cc1c[nH]cn1)NC(=O)[C@H](CO)NC(=O)[C@@H](NC(=O)[C@H](CCC(N)=O)NC(=O)[C@H](Cc1ccccc1)NC(=O)[C@@H](NC(=O)[C@H](CCC(N)=O)NC(=O)CN)C(C)C)C(C)C)C(=O)N[C@@H](Cc1ccc(O)cc1)C(=O)O [Peptide 68.0069] | > 20 µM | 0.557 µM
CSCC[C@H](NC(=O)CNC(=O)CNC(=O)[C@H](CCCNC(=N)N)NC(=O)[C@@H](NC(=O)[C@H](CCC(N)=O)NC(=O)[C@H](C)NC(=O)[C@@H](NC(=O)[C@@H](NC(=O)[C@H](CC(C)C)NC(=O)[C@H](Cc1c[nH]cn1)NC(=O)[C@H](Cc1ccc(O)cc1)NC(=O)[C@H](CCCCN)NC(=O)[C@H](Cc1ccccc1)NC(=O)[C@@H](N)CCSC)[C@@H](C)O)C(C)C)C(C)C)C(=O)O [Peptide 68.0119] | > 20 µM | 0.482 µM
CC[C@H](C)[C@H](NC(=O)[C@H](Cc1c[nH]c2ccccc12)NC(=O)[C@H](CCCCN)NC(=O)[C@H](CCCNC(=N)N)NC(=O)[C@H](Cc1ccc(O)cc1)NC(=O)[C@H](Cc1c[nH]cn1)NC(=O)[C@@H](NC(=O)[C@@H](NC(=O)[C@H](CCCCN)NC(=O)[C@@H](NC(=O)[C@H](Cc1ccc(O)cc1)NC(=O)[C@H](CC(C)C)NC(=O)[C@H](CO)NC(=O)[C@@H]1CCCN1C(=O)[C@@H](N)CCCNC(=N)N)[C@@H](C)O)C(C)C)C(C)C)C(=O)O [Peptide 68.0082] | > 20 µM | 4.16 µM
CC[C@H](C)[C@H](NC(=O)[C@H](CCC(N)=O)NC(=O)[C@@H](N)CCCNC(=N)N)C(=O)N[C@@H](Cc1ccc(O)cc1)C(=O)N[C@H](C(=O)N[C@@H](C)C(=O)N[C@@H](C)C(=O)N[C@@H](Cc1ccccc1)C(=O)N[C@H](C(=O)N[C@H](C(=O)N[C@@H](CCC(N)=O)C(=O)N[C@@H](C)C(=O)N[C@@H](C)C(=O)N[C@@H](C)C(=O)N[C@@H](CCC(=O)O)C(=O)O)C(C)C)[C@@H](C)O)C(C)C [Peptide 68.0134] | > 20 µM | 0.609 µM
CC[C@H](C)[C@H](NC(=O)[C@H](CS)NC(=O)[C@H](Cc1c[nH]cn1)NC(=O)[C@H](C)N)C(=O)N[C@@H](CCCNC(=N)N)C(=O)N[C@@H](CC(N)=O)C(=O)N[C@@H](CCCCN)C(=O)N[C@@H](CO)C(=O)N[C@H](C(=O)N[C@H](C(=O)N[C@@H](CC(C)C)C(=O)N[C@@H](CC(C)C)C(=O)NCC(=O)N[C@@H](CCCNC(=N)N)C(=O)N[C@@H](Cc1c[nH]cn1)C(=O)O)[C@@H](C)CC)C(C)C [Peptide 68.0066] | > 20 µM | 0.16 µM
CC[C@H](C)[C@H](NC(=O)[C@H](CCCNC(=N)N)NC(=O)[C@@H](N)[C@@H](C)O)C(=O)N[C@@H](Cc1ccc(O)cc1)C(=O)N[C@@H](CC(N)=O)C(=O)N[C@H](C(=O)N[C@H](C(=O)NCC(=O)N[C@H](C(=O)N[C@@H](CC(C)C)C(=O)N[C@@H](CCCNC(=N)N)C(=O)NCC(=O)N[C@@H](C)C(=O)N[C@H](C(=O)N[C@@H](CCC(=O)O)C(=O)O)C(C)C)[C@@H](C)O)[C@@H](C)CC)C(C)C [Peptide 68.0107] | > 20 µM | 0.502 µM
CC(C)C[C@H](NC(=O)[C@@H](NC(=O)[C@H](CCC(=O)O)NC(=O)[C@H](C)NC(=O)[C@H](C)NC(=O)[C@H](C)NC(=O)[C@H](CCC(N)=O)NC(=O)[C@@H](NC(=O)[C@@H](NC(=O)[C@H](Cc1ccccc1)NC(=O)[C@H](C)NC(=O)[C@H](C)NC(=O)[C@@H](N)C(C)C)[C@@H](C)O)C(C)C)[C@@H](C)O)C(=O)N[C@@H](CO)C(=O)N[C@@H](CCC(=O)O)C(=O)O [Peptide 68.0136] | > 20 µM | 4.46 µM
CC(C)C[C@H](NC(=O)[C@H](CO)NC(=O)[C@H](CC(C)C)NC(=O)[C@H](CO)NC(=O)[C@H](C)NC(=O)[C@H](C)NC(=O)[C@H](CCCNC(=N)N)NC(=O)[C@H](C)NC(=O)[C@H](CC(C)C)NC(=O)[C@H](CC(C)C)NC(=O)[C@H](CC(C)C)NC(=O)[C@@H]1CCCN1C(=O)[C@H](C)N)C(=O)NCC(=O)N[C@@H](Cc1ccccc1)C(=O)O [Peptide 68.0020] | > 20 µM | 0.225 µM
CC[C@H](C)[C@H](NC(=O)[C@H](CC(C)C)NC(=O)[C@H](CCCCN)NC(=O)[C@H](CCCCN)NC(=O)[C@@H](N)Cc1ccc(O)cc1)C(=O)N[C@@H](CCSC)C(=O)N[C@@H](Cc1ccc(O)cc1)C(=O)N[C@@H](CO)C(=O)N[C@@H](C)C(=O)N[C@@H](Cc1c[nH]cn1)C(=O)N[C@@H](CC(=O)O)C(=O)N[C@H](C(=O)N[C@H](C(=O)N[C@H](C(=O)N[C@@H](CO)C(=O)O)C(C)C)[C@@H](C)O)[C@@H](C)O [Peptide 68.0049] | > 20 µM | 0.928 µM
CC(C)C[C@H](NC(=O)[C@H](CO)NC(=O)[C@H](CC(C)C)NC(=O)[C@H](CO)NC(=O)[C@H](C)NC(=O)[C@H](C)NC(=O)[C@H](CCCNC(=N)N)NC(=O)[C@H](C)NC(=O)[C@H](CC(C)C)NC(=O)[C@H](CC(C)C)NC(=O)[C@H](CC(C)C)NC(=O)[C@@H]1CCCN1C(=O)[C@H](C)NC(=O)[C@H](C)N)C(=O)NCC(=O)O [Peptide 68.0019] | > 20 µM | 0.564 µM
CC[C@H](C)[C@H](NC(=O)[C@@H](N)CCC(N)=O)C(=O)N[C@@H](Cc1ccc(O)cc1)C(=O)N[C@H](C(=O)N[C@@H](C)C(=O)N[C@@H](C)C(=O)N[C@@H](Cc1ccccc1)C(=O)N[C@H](C(=O)N[C@H](C(=O)N[C@@H](CCC(N)=O)C(=O)N[C@@H](C)C(=O)N[C@@H](C)C(=O)N[C@@H](C)C(=O)N[C@@H](CCC(=O)O)C(=O)N[C@H](C(=O)O)[C@@H](C)O)C(C)C)[C@@H](C)O)C(C)C [Peptide 68.0135] | > 20 µM | 0.934 µM
CC[C@H](C)[C@H](NC(=O)[C@H](Cc1c[nH]c2ccccc12)NC(=O)[C@@H](NC(=O)[C@@H](NC(=O)[C@H](CO)NC(=O)[C@H](CC(C)C)NC(=O)[C@@H](N)[C@@H](C)O)C(C)C)[C@@H](C)O)C(=O)NCC(=O)N[C@@H](C)C(=O)N[C@@H](C)C(=O)N1CCC[C@H]1C(=O)N[C@@H](CC(C)C)C(=O)N[C@H](C(=O)N[C@@H](CC(C)C)C(=O)N[C@@H](CO)C(=O)O)[C@@H](C)CC [Peptide 68.0058] | > 20 µM | 0.055 µM
